Legend:
[1] = test system: rabbit; details: Prenatal developmental toxicity study, new zealand white, Oral, Gavage/Intubation, dose end: 19 GD
[2] = test system: rat; details: Prenatal developmental toxicity study; sprague dawley; Oral; Gavage/Intubation; dose end: 17 GD; group: maternal; systemic / in life observation / clinical signs / [other] + systemic / in life observation / clinical signs / ataxia + systemic / in life …
[3] = test system: rat; details: Peri- and post-natal toxicity study (Segment III), sprague dawley, Oral, Gavage/Intubation, dose end: 25 PND
[4] = test system: rat; details: Multigenerational reproductive toxicity study; sprague dawley; Oral; Gavage/Intubation; dose end: 1 generation; group: parental; systemic / in life observation / body weight / body weight gain + systemic / in life observation / clinical signs / skin discoloration + …
[5] = test system: rat; details: Prenatal developmental toxicity study, sprague dawley, Oral, Gavage/Intubation, dose end: 17 GD
[6] = test system: dog; details: Subchronic oral toxicity in nonrodent, beagle, Capsule, dose end: 14 week, group: systemic
[7] = test system: dog; details: Chronic toxicity, beagle, Oral, Capsule, dose end: 52 week, group: systemic
[8] = test system: rat; details: Subchronic oral toxicity in rodents, sprague dawley, Gavage/Intubation, dose end: 14 week, group: systemic
[9] = test system: rat; details: Multigenerational reproductive toxicity study, sprague dawley, Oral, Feed, dose end: 2 generation
[10] = test system: rat; details: Combined chronic toxicity/carcinogenicity; sprague dawley; Oral; Feed; dose end: 104 week; group: systemic; systemic / in life observation / body weight / body weight + systemic / in life observation / body weight / body weight gain + systemic / …
[11] = test system: rabbit; details: Prenatal developmental toxicity study, new zealand white, Oral, Gavage/Intubation, dose end: 18 GD
[12] = test system: mouse; details: Prenatal developmental toxicity study, other, Oral, Gavage/Intubation, dose end: 15 GD
[13] = test system: rat; details: Subchronic oral toxicity in rodents, sprague dawley, Feed, dose end: 90 day, group: systemic, systemic / in life observation / body weight / body weight gain + systemic / pathology microscopic / liver / hypertrophy + systemic / …
[14] = test system: mouse; details: Carcinogenicity, cd1, Oral, Feed, dose end: 105 week, group: systemic
[15] = group: developmental, developmental / developmental landmark / incisor eruption / incisor eruption + developmental / developmental malformation / bone / delayed …
[16] = group: maternal, systemic / in life observation / body weight / body weight + systemic / in life observation / clinical signs / [other] + systemic / in life …
[17] = group: maternal, reproductive / offspring survival early / dead fetuses / dead fetuses
[18] = group: parental, systemic / in life observation / clinical signs / skin discoloration + systemic / in life observation / clinical signs / urine, …
[19] = group: developmental, systemic / in life observation / body weight / fetal weight
[20] = group: maternal, systemic / in life observation / body weight / body weight gain + systemic / in life observation / food consumption / food consumption
[21] = group: maternal, systemic / in life observation / body weight / body weight gain + systemic / in life observation / food consumption / food consumption + …
[22] = systemic / hematology / anemia / anemia - nos + systemic / hematology / erythrocyte (rbc) count differential / erythrocyte (rbc) + systemic…
[23] = systemic / organ weight / liver / absolute + systemic / organ weight / liver / relative to body weight + systemic / pathology microscopic / …
[24] = systemic / pathology microscopic / gallbladder / discolored + systemic / pathology microscopic / gallbladder / vacuolization cytoplasmic
[25] = systemic / in life observation / clinical signs / alopecia
[26] = systemic / pathology microscopic / kidney / calculus + systemic / pathology microscopic / kidney / hyperplasia + systemic / pathology …
[27] = group: offspring, systemic / in life observation / body weight / offspring (pup) weight
[28] = group: parental, systemic / in life observation / body weight / body weight gain + systemic / in life observation / food consumption / food consumption
[29] = group: parental, systemic / in life observation / food consumption / food consumption
[30] = group: developmental, developmental / developmental malformation / bone / incomplete ossification + developmental / developmental malformation / lung / abnormal …
[31] = group: maternal, reproductive / reproductive performance / resorptions / resorptions + systemic / in life observation / body weight / body weight gain + …
[32] = systemic / in life observation / mortality / mortality

With `CCc1cc(S(=O)(=O)O)c2cc(C(C)C)cccc1-2` [Egualen] the LEL [1, 15] was 135 mg/kg/day, the LOAEL [1, 15] was > 135 mg/kg/day and the NEL [1, 15] was 45 mg/kg/day. For the same compound, the NOAEL [1, 15] was ≥ 135 mg/kg/day, the LEL [1, 16] was 135 mg/kg/day and the LOAEL [1, 16] was > 135 mg/kg/day. For the same compound, the NEL [1, 16] was 45 mg/kg/day, the NOAEL [1, 16] was ≥ 135 mg/kg/day and the LEL [2] was 77 mg/kg/day. The LOAEL [2] was > 600 mg/kg/day, the NEL [2] was 10 mg/kg/day and the NOAEL [2] was ≥ 600 mg/kg/day. The LEL [3, 17] was 300 mg/kg/day, the LOAEL [3, 17] was > 300 mg/kg/day and the NEL [3, 17] was 55 mg/kg/day. For the same compound, the NOAEL [3, 17] was ≥ 300 mg/kg/day, the LEL [3, 18] was 55 mg/kg/day and the LOAEL [3, 18] was > 300 mg/kg/day. The NEL [3, 18] was 10 mg/kg/day, the NOAEL [3, 18] was ≥ 300 mg/kg/day and the LEL [4] was 200 mg/kg/day. The LOAEL [4] was > 200 mg/kg/day, the NEL [4] was 50 mg/kg/day and the NOAEL [4] was ≥ 200 mg/kg/day.

`c1ccc2[nH]c(-c3cscn3)nc2c1` [Thiabendazole] was tested, and the LEL [5, 19] was 40 mg/kg/day, the LOAEL [5, 19] was 40 mg/kg/day and the NEL [5, 19] was 10 mg/kg/day. The NOAEL [5, 19] was 10 mg/kg/day, the LEL [5, 20] was 40 mg/kg/day and the LOAEL [5, 20] was 40 mg/kg/day. The NEL [5, 21] was 10 mg/kg/day, the NOAEL [5, 21] was 10 mg/kg/day and the LOAEL [6, 22] was > 150 mg/kg/day. The NEL [6, 22] was 35 mg/kg/day, the NOAEL [6, 22] was ≥ 150 mg/kg/day and the LEL ([6]; systemic / in life observation / clinical signs / emesis + systemic / pathology microscopic / gallbladder / vacuolization cytoplasmic) was 75 mg/kg/day. It also gave an LOAEL [7, 23] of 40 mg/kg/day, an NOAEL [7, 23] of 10 mg/kg/day and an LEL [7, 24] of 10 mg/kg/day. The NEL [7, 24] was < 10 mg/kg/day, the LEL [8, 25] was 25 mg/kg/day and the NEL [8, 25] was < 25 mg/kg/day. For the same compound, the LOAEL [8, 26] was 100 mg/kg/day, the NOAEL [8, 26] was 25 mg/kg/day and the LEL [9, 27] was 90 mg/kg/day. It also gave an LOAEL [9, 27] of 90 mg/kg/day, an NEL [9, 27] of 30 mg/kg/day and an NOAEL [9, 27] of 30 mg/kg/day. For the same compound, the LOAEL [9, 28] was 30 mg/kg/day, the NOAEL [9, 28] was 10 mg/kg/day and the LEL [9, 29] was 10 mg/kg/day. For the same compound, the NEL [9, 29] was < 10 mg/kg/day, the LEL [10] was 30.1 mg/kg/day and the LOAEL [10] was 30.1 mg/kg/day. The NEL [10] was 10.1 mg/kg/day, the NOAEL [10] was 10.1 mg/kg/day and the LEL [11, 30] was 600 mg/kg/day. The LOAEL [11, 30] was 600 mg/kg/day, the NEL [11, 30] was 150 mg/kg/day and the NOAEL [11, 30] was 150 mg/kg/day. For the same compound, the LEL [11, 31] was 600 mg/kg/day, the LOAEL [11, 31] was 600 mg/kg/day and the NEL [11, 31] was 150 mg/kg/day. For the same compound, the NOAEL [11, 31] was 150 mg/kg/day, the LEL [12, 19] was 100 mg/kg/day and the LOAEL [12, 19] was 100 mg/kg/day. The NEL [12, 19] was 25 mg/kg/day, the NOAEL [12, 19] was 25 mg/kg/day and the LEL [12, 20] was 100 mg/kg/day. For the same compound, the LOAEL [12, 20] was 100 mg/kg/day, the NEL [12, 20] was 25 mg/kg/day and the NOAEL [12, 20] was 25 mg/kg/day. It also gave an LEL [13] of 37 mg/kg/day, an LOAEL [13] of 37 mg/kg/day and an NEL [13] of 9.4 mg/kg/day. For the same compound, the NOAEL [13] was 9.4 mg/kg/day, the LOAEL ([14]; systemic / in life observation / body weight / body weight gain) was 92 mg/kg/day and the LEL [14, 32] was 6.95 mg/kg/day. For the same compound, the NEL [14, 32] was < 6.95 mg/kg/day and the NOAEL ([14]; systemic / in life observation / mortality / mortality + systemic / in life observation / body weight / body weight gain + systemic / organ …) was 36.5 mg/kg/day.

Source: EPA's ToxRefDB 2
